Laboratory results from ChEMBL document CHEMBL5634150, “Design, synthesis and biological evaluation of novel dihydroquinolin-4(1H)-one derivatives as novel tubulin polymerization inhibitors” (Eur J Med Chem, 2023).
The source made the active and inactive calls. The rule behind the calls is not given here.

Legend:
[1] = Toxicity in mouse assessed as effect on body weight loss at 20 mg/kg, iv administered once daily for 3 weeks; format: organism-based; settings: in vivo, 504 h
A549 = assay: Antiproliferative activity against human A549 cells assessed as inhibition of cell growth at 1 uM measured after 72 hrs by MTT assay relative to control; format: functional
K562 [2] = assay: Induction of cell cycle arrest in human K562 cells assessed as accumulation of cells at S phase at 6 nM incubated overnight by PI staining based flow cytometry analysis (reference value: 15.98%); format: functional
MDA-MB-231 = assay: Antiproliferative activity against human MDA-MB-231 cells assessed as inhibition of cell growth measured after 72 hrs by MTT assay; format: functional, cell-based; settings: MDA-MB-231, 72 h
Tubulin (Homo sapiens) [3] = biological target: T1, Tubulin (Homo sapiens) (UniProt P68371+Q9H4B7+P0DPH7+P68366+Q13509+Q71U36+P04350+Q3ZCM7+P07437+P68363+Q9BQE3+Q6PEY2+Q13885+Q9BVA1+Q9BUF5); assay: Inhibition of tubulin polymerization in human K562 cells assessed as microtubule destruction network at 1.5 to 6 uM incubated for 48 hrs by immunofluorescence staining based inverted microscopic analysis; format: cell-based; settings: dose 1.5-6 µM
HUVEC [4] = assay: Anti-angiogenesis activity in HUVEC cells assessed as disruption of capillary tube structure at 1.5 to 6 nM measured after 6 hrs by contrast microscopy based analysis; format: functional, cell-based; settings: Homo sapiens, dose 1.5-6 nM
Tubulin (Homo sapiens) [5] = biological target: T1, Tubulin (Homo sapiens); assay: (§1) Inhibition of tubulin polymerization (unknown origin) preincubated for 5 mins and measured every 5 mins for 60 mins by absorbance based analysis; format: protein-complex assay; settings: dose 5-10 µM, time 65.0 min
Tubulin = assay: as §1; format: protein-complex assay, Homo sapiens
K562 [6] = assay: Induction of cell cycle arrest in human K562 cells assessed as accumulation of cells at G1 phase at 6 nM incubated overnight by PI staining based flow cytometry analysis (reference value: 78.45%); format: functional
Cell membrane = assay: Induction of mitochondrial membrane depolarization in human K562 cells assessed as decrease in red fluorescence intensity at incubated for 48 hrs by JC-1 staining based flow cytometry; format: cell membranes; settings: dose 1.5-6 nM
[7] = Metabolic stability in mouse plasma assessed as compound remaining at 1 uM and measured at 3 hrs by LC-MS/MS analysis; format: ADME, cell-free; settings: read-out: Stability
K562 [8] = assay: Induction of apoptosis in human K562 cells assessed as downregulation of bcl-xl level at upto 6 nM measured after 48 hrs by Western blot analysis; format: functional, cell-based
K562 [9] = assay: Induction of cell cycle arrest in human K562 cells assessed as accumulation of cells at S phase at 3 nM incubated overnight by PI staining based flow cytometry analysis (reference value: 15.98%); format: functional
HUVEC [10] = assay: Anti-angiogenesis activity in HUVEC cells assessed as reduction in […] at 400 nM measured after 24 hrs by wound healing assay relative to control; format: functional, Homo sapiens; set-up: scale not given: the % may be the effect or the level left
[11] = Resistance index, ratio of IC50 for antiproliferative activity against human A549/Taxol cells to IC50 for antiproliferative activity against human A549 cells; format: functional
K562 [12] = assay: Induction of cell cycle arrest in human K562 cells assessed as accumulation of cells at S phase at 1.5 nM incubated overnight by PI staining based flow cytometry analysis (reference value: 15.98%); format: functional

IC50 (MDA-MB-231): 24 nM
inhibition (Tubulin (Homo sapiens) [3]): Active
inhibition (Tubulin (Homo sapiens) [5]): Dose-Dependent Effect
IC50 (Tubulin): 3060 nM
Activity (Cell membrane): Dose-Dependent Effect
remaining at 3 h, 1 µM [7]: 105%
Compound: CCn1ccc2cc(N3CCC(=O)c4c3cc(OC)c(OC)c4OC)ccc21
Activity [1]: Non-Toxic
inhibition at 1 µM (A549): 79%
Activity (K562 [2]): 30.18%
Activity (HUVEC [4]): Active
Activity (K562 [6]): 47.52%
Activity (K562 [8]): Active
Activity (K562 [9]): 28.04%
Activity (HUVEC [10]): <50%
Ratio IC50 [11]: 5.38
Activity (K562 [12]): 22.58%
